Measurements: patent US20240000948A1, “METHODS FOR TREATING EYE DISEASES USING LIPID BINDING PROTEIN-BASED COMPLEXES” (ABIONYX PHARMA SA, priority 2020, published 2024)
Read-outs that look alike come from different tables or passages of the source.

How the values were obtained:
[1] = CER-001 as carrier for ophthalmic drugs: appearance of samples after thermal cycling; format: physicochemical
Experimental: (§1) A solution of CER-001 was mixed with azithromycin to provide a final azithromycin concentration of 10 mg/ml and subjected to five heating and cooling cycles from 37° C. to 55° C. to promote complexation of azithromycin to CER-001. For controls, a sample of CER-001 without added azithromycin and a sample of azithromycin at a concentration of 10 mg/ml in phosphate buffered saline (PBS) were similarly subjected to five heating and cooling cycles from 37° C. to 55° C.
as §1, with “spironolactone” for “azithromycin”, “1.5” for “10”
as §1, with “cyclosporine” for “azithromycin”, “1” for “10”

eyes of albino rabbits = format: in vivo; details: for ocular tolerance: albino rabbits, CER-001 8 mg/ml (protein weight basis)
[2] = tested on: endotoxin-induced uveitis (severe inflammation); format: in vivo; details: albino rabbits
Experimental: CER-001 vehicle and Solu-Medrol®, an injectable formulation containing the anti-inflammatory glucocorticoid methylprednisolone sodium succinate, were included as controls. Tolerance was assessed by the McDonald-Shadduck scoring system (see, Eaton et al., Journal of Ocular Pharmacology and Therapeutics 33(10):718-734) 6 and 24 hours after administration. Cell infiltration and protein content in the aqueous humor were measured 24 hours after administration.

[3] = tested on: vision impairment related to LCAT deficiency (ocular lipid deposits); experiment: CER-001 therapy for LCAT deficiency-related vision impairment; format: in vivo, human
Experimental: A subject with LCAT deficiency and having vision impairment related to the subject's LCAT deficiency (said vision impairment being due to ocular lipid deposits) was administered CER-001 according to a treatment regimen comprising an induction regimen, a consolidation regimen, and a maintenance regimen.
Prior to treatment with CER-001, the subject had ocular lipid deposits presenting as white corneal ring opacities. The subject had normal visual acuity but visual blur, especially at night. […] Next-generation sequencing confirmed the subject as compound-heterozygous for two LCAT gene variations, but none in the ABCA1 or APOA1 genes. The first allele, motherly inherited, is an exon-5 (c.605T>C) missense mutation p.(Ile202Thr), previously well-established as familial LCAT deficiency (FLD)-causing in Europe. The paternal allele (c.154+5G>C), was novel and absent from general referral population databases. It alters a highly evolutionary-conserved residue of intron-1 donor splice-site, thereby potentially altering exon-1 mRNA-splicing and creating a cryptic acceptor splice-site at position c.154+15. […]
The induction regimen comprised nine doses of CER-001 administered over three weeks. The dose of CER-001 administered in the […] regimen was 10 mg/kg, calculated based upon the amount of ApoA-I in the CER-001 administered and the weight of the subject.
Following the induction regimen, the subject was administered CER-001 according to a consolidation regimen comprising seven doses of CER-001 administered over four weeks. The dose of CER-001 administered in the […] regimen was 10 mg/kg, calculated based upon the amount of ApoA-I in the CER-001 administered and the weight of the subject.
Following the consolidation regimen, the subject was administered CER-001 according to a maintenance regimen comprising once a week administration of CER-001 for three weeks. The dose of CER-001 administered in the maintenance regimen was 10 mg/kg calculated based upon the amount of ApoA-I in the CER-001 to be administered and the weight of the subject. […]

CC[C@H]1OC(=O)[C@H](C)[C@@H](O[C@H]2C[C@@](C)(OC)[C@@H](O)[C@H](C)O2)[C@H](C)[C@@H](O[C@@H]2O[C@H](C)C[C@H](N(C)C)[C@H]2O)[C@](C)(O)C[C@@H](C)CN(C)[C@H](C)[C@@H](O)[C@]1(C)O [azithromycin, reference compound]
appearance of sample following the heating and cooling cycles ([1]; azithromycin 10 mg/ml in PBS, five cycles 37° C. to 55° C., FIG. 1A): contained numerous crystals in the liquid and on the glass tube

CC(=O)S[C@@H]1CC2=CC(=O)CC[C@]2(C)[C@H]2CC[C@@]3(C)[C@@H](CC[C@@]34CCC(=O)O4)[C@H]12 [spironolactone, reference compound]
appearance of sample following the heating and cooling cycles ([1]; spironolactone 1.5 mg/ml in PBS, five cycles 37° C. to 55° C., FIG. 1B): contained numerous crystals in the liquid, on the glass tube, and above the meniscus

CER-001: lipoprotein complex of ApoA-I and phospholipids, 1:2.7 lipoprotein weight:total phospholipid weight ratio, SM:DPPG weight ratio 97:3
ocular tolerance (eyes of albino rabbits; repeated topical administration of up to 8 drops): No tolerance issues were observed
ocular tolerance (eyes of albino rabbits; single intravitreal administration): No tolerance issues were observed
ocular tolerance (statement referring to Examples 3 and 4) (eyes of albino rabbits; even with repeated administrations): good ocular tolerance
cell infiltration in the aqueous humor ([2]; 24 hours after administration, FIG. 3A): positive effect
protein in the aqueous humor ([2]; 24 hours after administration, FIG. 3B): positive effect
tolerance (McDonald-Shadduck scoring system) ([2]; single intravitreal administration, including 8 mg/ml, 6 and 24 hours, FIGS. 2A-2C): induced significant tolerance
appearance of sample following the heating and cooling cycles ([1]; CER-001 without added drug, five heating and cooling cycles from 37° C. to 55° C.): remained clear
complexation with ophthalmic drugs (summary of Example 1) ([1]; thermal cycling 37° C. to 55° C.): can complex with azithromycin, spironolactone, dexamethasone palmitate, and cyclosporine
visual blur at the end of the follow-up period ([3]; end of 3 months off-treatment follow-up): did not recur
effect of administration on vision ([3]; one subject with LCAT deficiency, IV infusion 10 mg/kg, later 20 mg/kg, 5 months treatment): normalization of vision
subject's vision during treatment ([3]; one subject with LCAT deficiency, IV infusion 10 mg/kg, later 20 mg/kg, induction, consolidation, maintenance, 5 months treatment): improved during the course of treatment
